Data from PubChem BioAssay AID2060484 (Molecular Pharmacology Branch, DTP, NCI, 2025).

Tested on: SUM149PT spheroids with HUVEC/MSC, viability
Test: Anticancer human tumor SUM149PT cell line growth inhibition [GQUAD];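 note: spheroids exposed to drugs for seven days before readout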;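 for viability, T/C: percent viability relative to DMSO vehicle control taken as 100%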
Conditions: for IC50: curve of first compound; for viability, T/C: stronger effect = lower value
Outline: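 Multi-cell-type spheroids of tumor cells with HUVEC and mesenchymal stem cells, treated with drug combinations. Concentrations descend in half-log steps from near clinical Cmax, or from 10 microM where Cmax is unknown; viability read-out.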

[1] = second compound 0.0316 µM, first compound 0.0316 µM
[2] = second compound 0.0316 µM, first compound 0.1 µM
[3] = second compound 0.0316 µM, first compound 0.316 µM
[4] = second compound 0.0316 µM, first compound 1 µM
[5] = second compound 0.0316 µM, first compound 3.16 µM
[6] = second compound 0.0316 µM, first compound 10 µM
[7] = second compound 0.1 µM, first compound 0.0316 µM
[8] = second compound 0.1 µM, first compound 0.1 µM
[9] = second compound 0.1 µM, first compound 0.316 µM
[10] = second compound 0.1 µM, first compound 1 µM
[11] = second compound 0.1 µM, first compound 3.16 µM
[12] = second compound 0.1 µM, first compound 10 µM
[13] = second compound 0.316 µM, first compound 0.0316 µM
[14] = second compound 0.316 µM, first compound 0.1 µM
[15] = second compound 0.316 µM, first compound 0.316 µM
[16] = second compound 0.316 µM, first compound 1 µM
[17] = second compound 0.316 µM, first compound 3.16 µM
[18] = second compound 0.316 µM, first compound 10 µM
[19] = second compound 1 µM, first compound 0.0316 µM
[20] = second compound 1 µM, first compound 0.1 µM
[21] = second compound 1 µM, first compound 0.316 µM
[22] = second compound 1 µM, first compound 1 µM
[23] = second compound 1 µM, first compound 3.16 µM
[24] = second compound 1 µM, first compound 10 µM
[25] = second compound 3.16 µM, first compound 0.0316 µM
[26] = second compound 3.16 µM, first compound 0.1 µM
[27] = second compound 3.16 µM, first compound 0.316 µM
[28] = second compound 3.16 µM, first compound 1 µM
[29] = second compound 3.16 µM, first compound 3.16 µM
[30] = second compound 3.16 µM, first compound 10 µM
[31] = second compound 10 µM, first compound 0.0316 µM
[32] = second compound 10 µM, first compound 0.1 µM
[33] = second compound 10 µM, first compound 0.316 µM
[34] = second compound 10 µM, first compound 1 µM
[35] = second compound 10 µM, first compound 3.16 µM
[36] = second compound 10 µM, first compound 10 µM

Work on `COc1cccc2c1C(=O)c1c(O)c3c(c(O)c1C2=O)CC(O)(C(=O)CO)CC3OC1CC(N)C(O)C(C)O1` (stereo unspecified) + Cc1cnc(CNC(=O)c2c(=O)c3ccc(N4CCCN(C)CC4)nc3n3c2sc2ccccc23)cn1 yielded an IC50 (second compound 0.0316 µM) of 112 nM, an IC50 (second compound 0.1 µM) of 97.9 nM and an IC50 (second compound 0.316 µM) of 75.9 nM. The IC50 (second compound 1 µM) was < 31.6 nM, the IC50 (second compound 3.16 µM) was < 31.6 nM and the IC50 (second compound 10 µM) was < 31.6 nM. For the same compound, the viability, T/C [1] was 66.9%, the viability, T/C [2] was 48.3% and the viability, T/C [3] was 36.2%. It also gave a viability, T/C [4] of 13.1%, a viability, T/C [5] of 1.37% and a viability, T/C [6] of 2.54%. For the same compound, the viability, T/C [7] was 57.7%, the viability, T/C [8] was 47.1% and the viability, T/C [9] was 36.3%. It also gave a viability, T/C [10] of 15.2%, a viability, T/C [11] of 1.96% and a viability, T/C [12] of 1.69%. The viability, T/C [13] was 57.3%, the viability, T/C [14] was 45.9% and the viability, T/C [15] was 34.1%. It also gave a viability, T/C [16] of 16.2%, a viability, T/C [17] of 2.74% and a viability, T/C [18] of 3.01%. The viability, T/C [19] was 44.2%, the viability, T/C [20] was 43.7% and the viability, T/C [21] was 30.1%. The viability, T/C [22] was 15.9%, the viability, T/C [23] was 0.7% and the viability, T/C [24] was 1.88%. The viability, T/C [25] was 36.5%, the viability, T/C [26] was 35.7% and the viability, T/C [27] was 28.9%. It also gave a viability, T/C [28] of 13%, a viability, T/C [29] of 1.22% and a viability, T/C [30] of 1.18%. The viability, T/C [31] was 0.13%, the viability, T/C [32] was 1.99% and the viability, T/C [33] was 15.3%. For the same compound, the viability, T/C [34] was 0.37%, the viability, T/C [35] was 0.4% and the viability, T/C [36] was 1.84%.
In the case of `Nc1ccn(C2OC(CO)C(O)C2(F)F)c(=O)n1` (stereo unspecified) + Cc1cnc(CNC(=O)c2c(=O)c3ccc(N4CCCN(C)CC4)nc3n3c2sc2ccccc23)cn1, the IC50 (second compound 0.0316 µM) is reported as 49.4 nM, the IC50 (second compound 0.1 µM) is reported as < 31.6 nM and the IC50 (second compound 0.316 µM) is reported as < 31.6 nM. For the same compound, the IC50 (second compound 1 µM) was < 31.6 nM, the IC50 (second compound 3.16 µM) was < 31.6 nM and the IC50 (second compound 10 µM) was < 31.6 nM. The viability, T/C [1] was 62.7%, the viability, T/C [2] was 29.1% and the viability, T/C [3] was 22.4%. For the same compound, the viability, T/C [4] was 17.9%, the viability, T/C [5] was 17.5% and the viability, T/C [6] was 12.2%. For the same compound, the viability, T/C [7] was 50%, the viability, T/C [8] was 31.6% and the viability, T/C [9] was 24.5%. It also gave a viability, T/C [10] of 18.6%, a viability, T/C [11] of 16.1% and a viability, T/C [12] of 14.5%. The viability, T/C [13] was 45.5%, the viability, T/C [14] was 29.5% and the viability, T/C [15] was 21.3%. For the same compound, the viability, T/C [16] was 17.3%, the viability, T/C [17] was 17.8% and the viability, T/C [18] was 14%. The viability, T/C [19] was 40.4%, the viability, T/C [20] was 28.7% and the viability, T/C [21] was 20.1%. The viability, T/C [22] was 17.2%, the viability, T/C [23] was 14.6% and the viability, T/C [24] was 14.3%. It also gave a viability, T/C [25] of 34.8%, a viability, T/C [26] of 27.1% and a viability, T/C [27] of 19.8%. For the same compound, the viability, T/C [28] was 17.1%, the viability, T/C [29] was 17.8% and the viability, T/C [30] was 14.5%. For the same compound, the viability, T/C [31] was 8.05%, the viability, T/C [32] was 9.51% and the viability, T/C [33] was 2.05%. It also gave a viability, T/C [34] of 0.66%, a viability, T/C [35] of 1.03% and a viability, T/C [36] of 2.03%.
With `O=c1[nH]cc(F)c(=O)[nH]1` + Cc1cnc(CNC(=O)c2c(=O)c3ccc(N4CCCN(C)CC4)nc3n3c2sc2ccccc23)cn1 the IC50 (second compound 0.0316 µM) was 2630 nM, the IC50 (second compound 0.1 µM) was 2120 nM and the IC50 (second compound 0.316 µM) was 1500 nM. The IC50 (second compound 1 µM) was < 31.6 nM, the IC50 (second compound 3.16 µM) was < 31.6 nM and the IC50 (second compound 10 µM) was < 31.6 nM. For the same compound, the viability, T/C [1] was 86.5%, the viability, T/C [2] was 86.4% and the viability, T/C [3] was 99.3%. It also gave a viability, T/C [4] of 75.6%, a viability, T/C [5] of 46.1% and a viability, T/C [6] of 34.8%. The viability, T/C [7] was 73.6%, the viability, T/C [8] was 64% and the viability, T/C [9] was 82.7%. The viability, T/C [10] was 67.2%, the viability, T/C [11] was 40.8% and the viability, T/C [12] was 32%. It also gave a viability, T/C [13] of 51.1%, a viability, T/C [14] of 61.2% and a viability, T/C [15] of 55%. The viability, T/C [16] was 55.2%, the viability, T/C [17] was 40.5% and the viability, T/C [18] was 31.2%. The viability, T/C [19] was 43.4%, the viability, T/C [20] was 43.5% and the viability, T/C [21] was 51.5%. The viability, T/C [22] was 40.9%, the viability, T/C [23] was 35.8% and the viability, T/C [24] was 29.4%. It also gave a viability, T/C [25] of 38.2%, a viability, T/C [26] of 36.2% and a viability, T/C [27] of 38.7%. For the same compound, the viability, T/C [28] was 36.5%, the viability, T/C [29] was 36% and the viability, T/C [30] was 30.3%. The viability, T/C [31] was 18.6%, the viability, T/C [32] was 9.86% and the viability, T/C [33] was 31.9%. The viability, T/C [34] was 31.5%, the viability, T/C [35] was 11% and the viability, T/C [36] was 2.12%.
